What was measured:
[1] = target: T1, human CB2 receptors (Homo sapiens, UniProt P34972); assay: functional cAMP assay, human CB2; format: cell-based; conditions: CHO cells expressing human CB2, cAMP; read-out: human CB2 EC50
T1 construct: expressed in transfected cells; host or cells: CHO cells
Summary of the method: (§1)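 CHO cells with human CB1 or CB2 were switched to Krebs Ringer bicarbonate buffer with 1 mM IBMX for 30 min at 30 °C, then given compound for 30 min at 30 °C. cAMP was measured by time-resolved FRET against a cAMP standard curve, and EC50 values were calculated.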

[2] = target: T2, human CB1 receptors (Homo sapiens, UniProt P21554); assay: functional cAMP assay, human CB1; format: cell-based; conditions: CHO cells expressing human CB1, cAMP; read-out: human CB1 EC50
T2 construct: expressed in transfected cells; host or cells: CHO cells
T2 sequence (P21554 whole entry): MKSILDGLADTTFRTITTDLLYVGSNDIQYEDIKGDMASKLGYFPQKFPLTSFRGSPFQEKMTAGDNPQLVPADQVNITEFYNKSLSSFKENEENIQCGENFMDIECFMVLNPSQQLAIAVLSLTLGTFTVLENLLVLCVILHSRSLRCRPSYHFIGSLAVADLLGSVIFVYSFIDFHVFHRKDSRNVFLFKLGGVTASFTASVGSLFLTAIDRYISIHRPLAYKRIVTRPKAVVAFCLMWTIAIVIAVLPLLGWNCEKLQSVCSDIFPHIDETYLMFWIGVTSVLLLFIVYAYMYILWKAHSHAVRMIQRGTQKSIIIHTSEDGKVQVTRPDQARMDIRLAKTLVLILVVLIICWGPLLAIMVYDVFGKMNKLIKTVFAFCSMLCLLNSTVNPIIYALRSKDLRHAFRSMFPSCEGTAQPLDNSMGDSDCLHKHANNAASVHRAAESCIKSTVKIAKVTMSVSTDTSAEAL
Summary of the method: as §1

T1 sequence (P34972 whole entry): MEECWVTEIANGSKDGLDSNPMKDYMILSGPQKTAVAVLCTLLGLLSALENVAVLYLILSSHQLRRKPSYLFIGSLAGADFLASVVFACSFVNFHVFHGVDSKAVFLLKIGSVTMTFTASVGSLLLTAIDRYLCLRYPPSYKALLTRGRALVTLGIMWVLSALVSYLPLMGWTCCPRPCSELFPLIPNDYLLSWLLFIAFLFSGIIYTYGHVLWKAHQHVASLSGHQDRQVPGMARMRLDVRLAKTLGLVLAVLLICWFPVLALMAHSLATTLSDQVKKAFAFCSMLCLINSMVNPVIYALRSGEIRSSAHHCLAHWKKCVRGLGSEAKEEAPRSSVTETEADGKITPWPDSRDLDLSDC

Structure (SMILES)	EC50 [1] [nM]	EC50 [2] [nM]
CC(C)(C)c1nc(N2CC[C@@](C)(O)C2)c2nnn(Cc3ccccc3S(C)(=O)=O)c2n1 [Example 223-b, (R)-1-(5-tert-butyl-3-(2-(methylsulfonyl)benzyl)-3H-[1,2,3]triazolo[4,5-d]pyrimidin-7-yl)-3-methylpyrrolidin-3-ol]	3	246
CC(C)(C)c1nc(N2CC[C@](C)(O)C2)c2nnn(Cc3ncccc3Cl)c2n1 [Example 224-a, (S)-1-(5-tert-butyl-3-((3-chloropyridin-2-yl)methyl)-3H-[1,2,3]triazolo[4,5-d]pyrimidin-7-yl)-3-methylpyrrolidin-3-ol]	1.1	899
CC(C)(C)c1nc(N2CC[C@@](C)(O)C2)c2nnn(Cc3ncccc3Cl)c2n1 [Example 224-b, (R)-1-(5-tert-butyl-3-((3-chloropyridin-2-yl)methyl)-3H-[1,2,3]triazolo[4,5-d]pyrimidin-7-yl)-3-methylpyrrolidin-3-ol]	6.4	> 10000
Cc1nnc(Cn2nnc3c(N4CC[C@](C)(O)C4)nc(C(C)(C)C)nc32)o1 [Example 225-a, (S)-1-(5-tert-butyl-3-((5-methyl-1,3,4-oxadiazol-2-yl)methyl)-3H-[1,2,3]triazolo[4,5-d]pyrimidin-7-yl)-3-methylpyrrolidin-3-ol]	29.1	> 10000
Cc1nnc(Cn2nnc3c(N4CC[C@@](C)(O)C4)nc(C(C)(C)C)nc32)o1 [Example 225-b, (R)-1-(5-tert-butyl-3-((5-methyl-1,3,4-oxadiazol-2-yl)methyl)-3H-[1,2,3]triazolo[4,5-d]pyrimidin-7-yl)-3-methylpyrrolidin-3-ol]	175	> 10000
Cc1noc(Cn2nnc3c(N4CC[C@](C)(O)C4)nc(C(C)(C)C)nc32)n1 [Example 226-a, (S)-1-(5-tert-butyl-3-((3-methyl-1,2,4-oxadiazol-5-yl)methyl)-3H-[1,2,3]triazolo[4,5-d]pyrimidin-7-yl)-3-methylpyrrolidin-3-ol]	57	> 10000
Cc1noc(Cn2nnc3c(N4CC[C@@](C)(O)C4)nc(C(C)(C)C)nc32)n1 [Example 226-b, (R)-1-(5-tert-butyl-3-((3-methyl-1,2,4-oxadiazol-5-yl)methyl)-3H-[1,2,3]triazolo[4,5-d]pyrimidin-7-yl)-3-methylpyrrolidin-3-ol]	233	> 10000
Cn1nnnc1Cn1nnc2c(N3CC[C@](C)(O)C3)nc(C(C)(C)C)nc21 [Example 227-a, (S)-1-(5-tert-butyl-3-((1-methyl-1H-tetrazol-5-yl)methyl)-3H-[1,2,3]triazolo[4,5-d]pyrimidin-7-yl)-3-methylpyrrolidin-3-ol]	18.7	> 10000
Cn1nnnc1Cn1nnc2c(N3CC[C@@](C)(O)C3)nc(C(C)(C)C)nc21 [Example 227-b, (R)-1-(5-tert-butyl-3-((1-methyl-1H-tetrazol-5-yl)methyl)-3H-[1,2,3]triazolo[4,5-d]pyrimidin-7-yl)-3-methylpyrrolidin-3-ol]	43.5	> 10000
Cc1nonc1Cn1nnc2c(N3CC[C@](C)(O)C3)nc(C(C)(C)C)nc21 [Example 228-a, (S)-1-(5-tert-butyl-3-((4-methyl-1,2,5-oxadiazol-3-yl)methyl)-3H-[1,2,3]triazolo[4,5-d]pyrimidin-7-yl)-3-methylpyrrolidin-3-ol]	1.8	> 10000
Cc1nonc1Cn1nnc2c(N3CC[C@@](C)(O)C3)nc(C(C)(C)C)nc21 [Example 228-b, (R)-1-(5-tert-butyl-3-((4-methyl-1,2,5-oxadiazol-3-yl)methyl)-3H-[1,2,3]triazolo[4,5-d]pyrimidin-7-yl)-3-methylpyrrolidin-3-ol]	3.3	> 10000
CC(C)(C)c1nc(N2CC[C@](C)(O)C2)c2nnn(CCC(F)(F)F)c2n1 [Example 229-a, (S)-1-(5-tert-butyl-3-(3,3,3-trifluoropropyl)-3H-[1,2,3]triazolo[4,5-d]pyrimidin-7-yl)-3-methylpyrrolidin-3-ol]	30.4	> 10000
CC(C)(C)c1nc(N2CC[C@@](C)(O)C2)c2nnn(CCC(F)(F)F)c2n1 [Example 229-b, (R)-1-(5-tert-butyl-3-(3,3,3-trifluoropropyl)-3H-[1,2,3]triazolo[4,5-d]pyrimidin-7-yl)-3-methylpyrrolidin-3-ol]	37.4	> 10000
CC(C)(C)c1nc(N2CC[C@](C)(O)C2)c2nnn(Cc3nnnn3C3CC3)c2n1 [Example 230-a, (S)-1-(5-tert-butyl-3-((1-cyclopropyl-1H-tetrazol-5-yl)methyl)-3H-[1,2,3]triazolo[4,5-d]pyrimidin-7-yl)-3-methylpyrrolidin-3-ol]	2.7	> 10000
CC(C)(C)c1nc(N2CC[C@@](C)(O)C2)c2nnn(Cc3nnnn3C3CC3)c2n1 [Example 230-b, (R)-1-(5-tert-butyl-3-((1-cyclopropyl-1H-tetrazol-5-yl)methyl)-3H-[1,2,3]triazolo[4,5-d]pyrimidin-7-yl)-3-methylpyrrolidin-3-ol]	13.6	> 10000

Source: US8741906B2 (priority 2011, dated 2014)
